Columns and labels:
[1] = solubility/compatibility and stability observations in the compositions; type: physicochemical; conditions: three (3) months at 40° C.
Excerpt: With regard to the photoprotective compositions of the present disclosure, it was observed that high levels of isohexadecane, especially those of about 70 wt. %, limited the solubility and/or compatibility of other ingredients which cause undesirable characteristics within the entire photoprotective composition such as, i.e., hazing, oily segregation, and/or precipitation from the composition, and combinations thereof. […] Dimethicone with a viscosity of about 350 cst at a 1 wt. % concentration, for example, causes hazing.

[2] = flame extension test; type: physicochemical; conditions: propellant
Protocol: In one embodiment, the photoprotective composition concentrate and propellant are added to an aerosol container in a ratio of about 70:30 to about 60:40. The tetraflouroethane and difluoroethane propellants were tested and are non-flammable in view of the flame extension test.
In another embodiment, the photoprotective composition concentrate and propellant are added to an aerosol container in a ratio of about 70:30. The tetraflouroethane and isobutene propellants were evaluated to determine what blends of tetraflouroethane and isobutene propellants would provide a non-flammable product at a reasonable cost. […] In some embodiments having a photoprotective composition comprising a concentrate and at least one propellant, the ratio of the photoprotective composition and the propellant can be between about 2.5:1 and about 1.25:1.

| storage stability [1] | SMILES | flammability [2] |
| --- | --- | --- |
| crystals appeared | COc1ccc(C(=O)CC(=O)c2ccc(C(C)(C)C)cc2)cc1 [avobenzone] | – |
| – | CC(F)F [difluoroethane, 1,1-difluoroethane] | non-flammable |
| – | FCC(F)(F)F [tetraflouroethane] | non-flammable |

From patent US20170189294A1, “Non-Irritating, Non-Whitening Photoprotective Compositions” (Eveready Battery Company, Inc., priority 2013, published 2017)
